Measured values: patent US20220288102A1, “Compounds for Hepatitis B Treatment” (Agency for Science, Technology and Research, priority 2019, published 2022)
“Also recorded” adds a separate entry of the source.

What was measured:
HBsAg [1] = assay: HBsAg inhibition in HepG2 2.15 cells (primary screen and dose response, HBsAg ELISA); format: cell-based, Hepatitis B virus; conditions: for HBsAg inhibition, dose response curve / percentage inhibition curve (HBsAg): 8-point dose response in HepG2 2.15 cells starting from 30 μM; for IC50: Hepatitis B virus, HepG2.2.15, read-out: IC50 (HBsAg); for percentage inhibition curve (HBsAg): FIG. 4
Procedure: HBsAg ELISA. HBsAg ELISA was carried out as described in detail below. In brief 25 μL of the cell culture supernatant was collected at the indicated timepoints on the figure legends and was used for the HBsAg ELISA.
Procedure • 1. Coat microwells with 25 ul per well of mouse monoclonal [86C] diluted in coating buffer (6 ug per ml; 300 ul from 0.2 mg/ml stock in 10 ml of coating buffer)(150 ng/well). • 2. Seal plate and incubate overnight at 4° C. • 3. Aspirate wells and wash 3 times with 50 ul/well of wash buffer. • 4. After last wash, invert plate and blot on c-towel and spin 1000 rpm for 1 min to remove residual solution. • 5. Block plates with 75 ul/well of assay diluent. Incubate at RT for 2 hrs. • 6. Aspirate/wash as in step 3. • 7. Prepare 4000 ng/ml of active HBS Ag (Adw) full length protein in assay diluent and titrate 2 fold for 12 different decreasing concentration. Pipette 25 ul of sample and different dilutions of active HepB surface Ag (Adw) into appropriate wells. Seal plate and incubate for 2 hrs at RT. • 8. Aspirate/wash as in step 3 but with total 5 washes. • 9. Add 25 ul of working detector (Rabbit polyclonal to HBS-Biotin (4500 ng/ml)+SAv-HRP (1:1000) reagent to each well. Seal plate and incubate for 1 hr at RT. • 10. Aspirate/wash as in step 3 but for 7 washes. • 11. Add 25 ul of TMB substrate solution to each well and incubate plate for 30 minutes at RT in dark. • 12. Add 25 ul of stop solution (1N HCl) to each well, read absorbance at 450 nm within 30 minutes of stopping reaction.
In block 205, a primary screen of the library of compounds was done in HepG2 2.15 cells to determine the inhibitory activity of HBsAg (the surface antigen of the Hepatitis B virus which indicates hepatitis B infection in patients) and parallel cytotoxicity. In block 310, the hit compounds (“HITS” or “HITs”) were determined by identifying compounds with certain criteria. […] For example, the compounds may be tested at 3 μM (data shown herein) or 10 μM.
A secondary screen of the hit compounds was done to determine the EC50 of the hit compounds.

[2] = Cytotoxicity in HepG2 2.15 cells; format: cell-based; conditions: human, Hep G2 2.15 cells
Procedure: In block 205, a primary screen of the library of compounds was done in HepG2 2.15 cells to determine the inhibitory activity of HBsAg (the surface antigen of the Hepatitis B virus which indicates hepatitis B infection in patients) and parallel cytotoxicity. In block 310, the hit compounds (“HITS” or “HITs”) were determined by identifying compounds with certain criteria. […] In the preliminary screen, the compounds are typically tested at higher concentrations than expected and may lead to greater than desired cytotoxicity (>20%). For example, the compounds may be tested at 3 μM (data shown herein) or 10 μM. However, the compound was subsequently further tested in a proper dose response manner (described below) to determine whether the drug is able to elicit the antiviral response (decrease in HBsAg levels) with low cytotoxicity (i.e. <20% cytotoxicity).
From the primary high throughput screen of 151 epigenetic modulators in the SelleckChem compound library at a 3 μM concentration, 16 hit compounds were identified to have good antiviral activity resulting in high HBsAg loss (>50%) and low cytotoxicity (<20%) and the results are shown in FIG. 3.
A secondary screen of the hit compounds was done to determine the EC50 of the hit compounds. […] Some of the other compounds were determined to be less suitable. […] The MI-2 EC50 is very high and appers to be dependent on the toxic nature of the compound and was not a viable option. The percentage inhibition curve of MC1568, OF-1 and tofacitinib in FIG. 4 are close to 0 in the vertical axis and may not be readily seen in FIG. 4. It may be seen that the secondary screen is able to filter off unsuitable compounds from the primary screen.

extracellular HBV DNA = assay: Extracellular HBV DNA (qPCR) in infected primary human hepatocytes; format: cell-based, Hepatitis B virus; conditions: HBVcc-infected primary human hepatocytes, compound treatment 3 μM
Procedure: HBV extracellular DNA was extracted from 200 μL of cell culture supernatant collected at the end of the experiment as indicated on the figure legends. DNA was extracted according to the QIAamp DNA Mini Kit (Qiagen).
(§1) FIG. 8 briefly describes an experimental model of the method to infect the cells with HBV, treatment with drugs, and subsequent analysis. The primary human hepatocytes were seeded in a 96 well plate coated with Collagen I (30 minutes at room temperature) with DMSO (1%) induction. The next day, the cells were infected with purified HBV with a multiplicity of infection (MOI) of 500 (i.e. the ratio of the infection agent (HBV) to the infection target (cell)) in media containing 4% polyethylene glycol 8000 (PEG-8000) and 1% DMSO (day 0). On the next day, the infected cells were washed vigorously to remove excess virus by washing 3 times without removing the spent media completely and treated with the test compounds at 3 μM concentration (day 1). In addition. the supernatant was collected at day 3 and the cells pulsed again with the test compounds at 3 μM concentration. At day 5, the supernatant was collected for analysis with the HBsAg ELISA and finally at day 8 cells were lysed for DNA isolation, eHBV analysis and cccDNA analysis. This allows comparison of the effects of the compounds on day 3 and day 5. Some of the cells were fixed, permeabalized and stained with antibody to HBcAg to determine HBcAg levels via IFA.

HBV in HepAD38.7 cells = assay: Secondary validation of the drug screen in HepAD38.7 cells; format: cell-based, Hepatitis B virus
Procedure: In block 215, a secondary screen was conducted to determine the EC50 values (the effective concentration to obtain 50% activity or inhibition) of the HIT compounds. In block 220, the hit compounds were tested in HEPAD38.7 HBV live infection models to determine the robustness of the hit compounds, i.e. whether the hit compounds are effective. In block 225, the novel lead compounds or scaffold structures are identified and mechanism of action (MOA) studies for target engagement were developed. In block 230, the lead compound is optimised and validated or if the compound is known but for a different non-biological use or biological target, the compound may be repurposed for the inhibition of HBV. In block 235, the efficacy of the compound was determined in animal models.
A secondary validation of the drug screen in HepAD38.7 cells and a functional gene knockdown using Lipofectamine 3000 reagent was also performed. The genes selected were the annotated targets of the selected epigenetic inhibitors.

cccDNA = cccDNA (qPCR) in infected primary human hepatocytes; format: cell-based, Hepatitis B virus; conditions: HBVcc-infected primary human hepatocytes, compound treatment 3 μM
Procedure: The DNA is isolated from the cellular lysate, purification with Plasmid safe ATP-dependent DNAse is performed to remove non-circular DNAs (relaxed circular DNA). cccDNA levels are then measure using a Taqman-probe based quantitative polymerase chain reaction.
as §1, with “Some of the cells were fixed, permeabalized and stained with antibody to HBcAg to determine HBcAg levels via IFA.” left out

[3] = test system: primary human hepatocytes; assay: Cytotoxicity (CCK-8) in infected primary human hepatocytes; format: cell-based; conditions: 3 μM
HBsAg [4] = assay: HBsAg ELISA in HBV-infected primary human hepatocytes; format: cell-based, Hepatitis B virus; conditions: 3 μM
Procedure: HBV infection of PHH. Primary human hepatocytes were infected at […] in presence of 4% PEG8000 and 1% DMSO as described earlier. The samples, cell lysate for RNA and or DNA as well as cell culture supernatant were harvested at indicated timepoints on figure legends.
Procedure • 1. […] Seal plate and incubate overnight at 4° C. • 3. […] Block plates with 75 ul/well of assay diluent. Incubate at RT for 2 hrs. • 6. Aspirate/wash as in step 3. • 7.
as §1

## Cc1cc(Nc2nc(N[C@@H](C)c3ccc(F)cc3)c(C#N)cc2F)n[nH]1 [AZ960]
HBsAg [1]
  HBsAg inhibition, dose response curve: suitable dose response curve
  IC50: 193 nM
[2]
  IC50: 0.231 µM
Extracellular HBV DNA
  extracellular HBV DNA levels in the cell culture supernatant: reduces extracellular HBV DNA levels more than Entecavir

## COc1cc(Nc2ncc3c(n2)-c2ccc(Cl)cc2C(c2c(F)cccc2OC)=NC3)ccc1C(=O)O [Alisertib]
HBsAg [1]
  HBsAg inhibition, dose response curve: not as efficacious
HBV in HepAD38.7 cells
  antiviral effect in HepAD38 cells: did not show an effect

## Cc1nc(N)sc1-c1ccnc(Nc2ccc(N3CCOCC3)cc2)n1 [CYC-116]
HBsAg [1]
  HBsAg inhibition, dose response curve: suitable dose response curve
  IC50: 420 nM
cccDNA
  cccDNA levels in the cell lysate: lowest measured cccDNA levels
[2]
  IC50: 1.49 µM
[3]
  cytotoxicity level (CCK-8): higher cytotoxicity levels
HBsAg [4]; Day 3 and Day 5
  HBsAg levels: reduces HBsAg levels more than Entecavir; also recorded: lowest HBsAg levels
Extracellular HBV DNA
  extracellular HBV DNA levels in the cell culture supernatant: reduces extracellular HBV DNA levels more than Entecavir
HBV in HepAD38.7 cells
  antiviral effect in HepAD38 cells: significantly higher antiviral activity

## C=C1[C@H](CO)[C@@H](O)C[C@@H]1n1cnc2c(=O)[nH]c(N)nc21 [Entecavir]
[3]
  cytotoxicity level (CCK-8): low toxicity levels

## Cn1c(/C=C/C(=O)NO)ccc1/C=C/C(=O)c1cccc(F)c1 [MC-1568]
HBsAg [1]
  percentage inhibition curve (HBsAg): ~0%

## CCCc1cc2c(N3CCN(C4=NCC(C)(C)S4)CC3)ncnc2s1 [MI-2]
HBsAg [1]; secondary screen, HepG2 2.15 cells
  EC50: very high

## CC(C)c1cc2c(N3CCN(C4=NCC(C)(C)S4)CC3)ncnc2s1 [MI-3]
HBsAg [1]
  HBsAg inhibition, dose response curve: suitable dose response curve
  IC50: 1120 nM
[2]
  IC50: 4.37 µM

## CCCCN(Cc1ccc(C(=O)NO)cc1)C(=O)Nc1ccccc1 [Nexturastat A]
HBsAg [1]
  HBsAg inhibition, dose response curve: suitable dose response curve
  IC50: 980 nM
[2]
  IC50: 3.58 µM
HBsAg [4]; Day 3 and Day 5
  HBsAg levels: reduces HBsAg levels more than Entecavir
HBV in HepAD38.7 cells
  antiviral effect in HepAD38 cells: significantly higher antiviral activity

## COc1cc2c(cc1NS(=O)(=O)c1ccc(Br)cc1C)n(C)c(=O)n2C [OF-1]
HBsAg [1]
  percentage inhibition curve (HBsAg): ~0%

## CCS(=O)(=O)c1cccc(-c2cc(C(=O)NC3CCN(C)CC3)c(C)c3[nH]c4ncc(C)cc4c23)c1 [TAK-901]
HBsAg [1]
  HBsAg inhibition, dose response curve: suitable dose response curve
  IC50: 400 nM
cccDNA
  cccDNA levels in the cell lysate: lowest measured cccDNA levels
[2]
  IC50: 11 µM
[3]
  cytotoxicity level (CCK-8): higher cytotoxicity levels
HBsAg [4]; Day 3 and Day 5
  HBsAg levels: reduces HBsAg levels more than Entecavir
Extracellular HBV DNA
  extracellular HBV DNA levels in the cell culture supernatant: reduces extracellular HBV DNA levels more than Entecavir
HBV in HepAD38.7 cells
  antiviral effect in HepAD38 cells: significantly higher antiviral activity

## C[C@@H]1CCN(C(=O)CC#N)C[C@@H]1N(C)c1ncnc2[nH]ccc12 [Tofacitinib]
HBsAg [1]
  percentage inhibition curve (HBsAg): ~0%

## CN1CCc2c(c3ccccc3n2Cc2ccc(C(=O)NO)cc2)C1.Cl [Tubastatin A HCl, Tubastatin A hydrochloride salt]
HBsAg [1]
  HBsAg inhibition, dose response curve: suitable dose response curve
  IC50: 2000 nM
[2]
  IC50: 7.21 µM
HBsAg [4]; Day 3 and Day 5, hydrochloride salt
  HBsAg levels: reduces HBsAg levels more than Entecavir; also recorded: lowest HBsAg levels
HBV in HepAD38.7 cells
  antiviral effect in HepAD38 cells: significantly higher antiviral activity
